For one data set, the system named is LNCaP tumor bearing mice. As to the kind of experiment: SPECT/CT scanning, exposure of 177Lu labeled compounds in tumor and tissues. The data set is classed as in vivo. The note with it: in contrast to PSMA-617. The protocol:
The ^177Lu labeled precursor compound was diluted to 7.4 MBq (200 μCi)/200 […] with normal saline, and each tumor bearing mouse was given about 7.4 MBq (200 μCi) of the drug via tail vein injection. SPECT/CT scanning was performed on the mice at 1, 4, 8, 24, 48 and 72 h after administration, respectively, with the mice under continuous anesthesia with isoflurane, lying prone on an examination bed. The acquisition method was static imaging 12 min SPECT, and medium resolution whole-body imaging CT. During the process, according to the recording table, the animal body weight, injection dose, injection time and residual dose were recorded, and the time of measuring the injection dose and the time of measuring the residual dose were recorded respectively. After scanning, the data were reconstructed, PMOD software was used to analyze and delineate each organ tissue and quantify the drug distribution therein, the images and data were saved, and the data were further subjected to statistical analysis.
Drug exposure in each tissue was calculated (Table 1, where the values involving PSMA-D were the predicted values).
For the compound `COc1ccc(C(=O)NCCN2CCN(C(=O)CCC(=O)N[C@@H](CCCCNC(=O)CN3CCN(CC(=O)O)CCN(CC(=O)O)CCN(CC(=O)O)CC3)C(=O)N3CCc4cc(C(=O)N[C@@H](Cc5ccc6ccccc6c5)C(=O)NCCCC[C@H](NC(=O)N[C@@H](CCC(=O)O)C(=O)O)C(=O)O)ccc4C3)CC2)cc1` [PSMA-L], the “drug exposure in the LNCaP tumor, in words” value is recorded as “greatly increase the drug exposure in the LNCaP tumor” and the “exposure in the normal tissues, in words” value was “kept at a lower level”.

Staying with this data set, now noted: labeled with 177Lu; about 7.4 MBq (200 μCi) tail vein; scans 1-72 h.
For `COc1ccc(CCCC(=O)NC(Cc2c[nH]cn2)C(=O)N[C@@H](CCCCNC(=O)CN2CCN(CC(=O)O)CCN(CC(=O)O)CCN(CC(=O)O)CC2)C(=O)NCC2CCC(C(=O)N[C@@H](Cc3ccc4ccccc4c3)C(=O)NCCCC[C@H](NC(=O)N[C@@H](CCC(=O)O)C(=O)O)C(=O)O)CC2)cc1` (some centres unmarked) [PSMA-B], the “Exposure in Bladder” value came out at 157.3 h*ID %/g, the “Exposure in Bone” value is 20.62 h*ID %/g, the “Exposure in Heart” value is reported as 54.22 h*ID %/g and the “Exposure in Kidney” value turned out to be 330.5 h*ID %/g. Also, the “Exposure in Liver” value is 53.28 h*ID %/g, the “Exposure in Lung” value came to 50.04 h*ID %/g, the “Exposure in Muscle” value is on record as 32.14 h*ID %/g and the “Exposure in Spleen” value came to 31.81 h*ID %/g. For the same compound, the “Exposure in Tumor” value was 370 h*ID %/g.
On to `COc1ccc(C(=O)N[C@@H](CCCCNC(=O)CN2CCN(CC(=O)O)CCN(CC(=O)O)CCN(CC(=O)O)CC2)C(=O)NCC2CCC(C(=O)N[C@@H](Cc3ccc4ccccc4c3)C(=O)NCCCC[C@H](NC(=O)N[C@@H](CCC(=O)O)C(=O)O)C(=O)O)CC2)cc1` (some centres unmarked) [PSMA-I], for which the “Exposure in Bladder” value came out at 831.9 h*ID %/g, the “Exposure in Bone” value was 50.24 h*ID %/g, the “Exposure in Heart” value is recorded as 23.61 h*ID %/g and the “Exposure in Kidney” value was 776.8 h*ID %/g. For the same compound, the “Exposure in Liver” value came to 55.24 h*ID %/g, the “Exposure in Lung” value was 31.12 h*ID %/g, the “Exposure in Muscle” value is listed as 62.66 h*ID %/g and the “Exposure in Spleen” value turned out to be 65.02 h*ID %/g. For the same compound, the “Exposure in Tumor” value is on record as 95.56 h*ID %/g.
For the compound `COc1ccc(C(=O)NCCN2CCN(C(=O)CCC(=O)N[C@@H](CCCCNC(=O)CN3CCN(CC(=O)O)CCN(CC(=O)O)CCN(CC(=O)O)CC3)C(=O)NCC3CCC(C(=O)N[C@@H](Cc4ccc5ccccc5c4)C(=O)NCCCC[C@H](NC(=O)N[C@@H](CCC(=O)O)C(=O)O)C(=O)O)CC3)CC2)cc1` (some centres unmarked) [PSMA-K], the “Exposure in Bladder” value was found to be 585.9 h*ID %/g, the “Exposure in Bone” value is given as 32.71 h*ID %/g, the “Exposure in Heart” value was determined as 54.52 h*ID %/g and the “Exposure in Kidney” value amounted to 79.78 h*ID %/g. The “Exposure in Liver” value worked out at 314.2 h*ID %/g, the “Exposure in Lung” value turned out to be 278.5 h*ID %/g, the “Exposure in Muscle” value is recorded as 26.77 h*ID %/g and the “Exposure in Spleen” value is reported as 83.81 h*ID %/g. In addition, the “Exposure in Tumor” value is 281 h*ID %/g.
As for `O=C(O)CCCCCCCCCCCCCCC(=O)N[C@@H](CCCCNC(=O)CN1CCN(CC(=O)O)CCN(CC(=O)O)CCN(CC(=O)O)CC1)C(=O)NCC1CCC(C(=O)N[C@@H](Cc2ccc3ccccc3c2)C(=O)NCCCC[C@H](NC(=O)N[C@@H](CCC(=O)O)C(=O)O)C(=O)O)CC1` (some centres unmarked) [PSMA-F], the “Exposure in Bladder” value is 633.7 h*ID %/g, the “Exposure in Bone” value was 94.85 h*ID %/g, the “Exposure in Heart” value stood at 581.6 h*ID %/g and the “Exposure in Kidney” value worked out at 669.2 h*ID %/g. Also, the “Exposure in Liver” value is 263.1 h*ID %/g, the “Exposure in Lung” value came to 348.3 h*ID %/g, the “Exposure in Muscle” value was 253.3 h*ID %/g and the “Exposure in Spleen” value amounted to 55.76 h*ID %/g. The “Exposure in Tumor” value is listed as 1394 h*ID %/g.
On to `COc1ccc(CCCC(=O)NC(CCC(N)=O)C(=O)N[C@@H](CCCCNC(=O)CN2CCN(CC(=O)O)CCN(CC(=O)O)CCN(CC(=O)O)CC2)C(=O)NCC2CCC(C(=O)N[C@@H](Cc3ccc4ccccc4c3)C(=O)NCCCC[C@H](NC(=O)N[C@@H](CCC(=O)O)C(=O)O)C(=O)O)CC2)cc1` (some centres unmarked) [PSMA-E], for which the “Exposure in Bladder” value is given as 710.2 h*ID %/g, the “Exposure in Bone” value is reported as 51.75 h*ID %/g, the “Exposure in Heart” value is recorded as 19.52 h*ID %/g and the “Exposure in Kidney” value is listed as 239 h*ID %/g. The “Exposure in Liver” value stood at 31.19 h*ID %/g, the “Exposure in Lung” value turned out to be 14.87 h*ID %/g, the “Exposure in Muscle” value was 25.53 h*ID %/g and the “Exposure in Spleen” value amounted to 46.74 h*ID %/g. Also, the “Exposure in Tumor” value is 473.6 h*ID %/g.
As to `COc1ccc(C(=O)NCCN2CCN(C(=O)CCC(=O)N[C@@H](CCCCNC(=O)CN3CCN(CC(=O)O)CCN(CC(=O)O)CCN(CC(=O)O)CC3)C(=O)N3CCc4cc(C(=O)N[C@@H](Cc5ccc6ccccc6c5)C(=O)NCCCC[C@H](NC(=O)N[C@@H](CCC(=O)O)C(=O)O)C(=O)O)ccc4C3)CC2)cc1` [PSMA-L], the “Exposure in Bladder” value is 499.3 h*ID %/g, the “Exposure in Bone” value is on record as 15.5 h*ID %/g, the “Exposure in Heart” value was 40.58 h*ID %/g and the “Exposure in Kidney” value is 148.8 h*ID %/g. The “Exposure in Liver” value turned out to be 62.47 h*ID %/g, the “Exposure in Lung” value came to 51.83 h*ID %/g, the “Exposure in Muscle” value is recorded as 37.2 h*ID %/g and the “Exposure in Spleen” value was determined as 34.43 h*ID %/g. The “Exposure in Tumor” value is listed as 1350 h*ID %/g.
As for `O=C(O)CCCCCCCCCCCCC(=O)N[C@@H](CCCCNC(=O)CN1CCN(CC(=O)O)CCN(CC(=O)O)CCN(CC(=O)O)CC1)C(=O)NCC1CCC(C(=O)N[C@@H](Cc2ccc3ccccc3c2)C(=O)NCCCC[C@H](NC(=O)N[C@@H](CCC(=O)O)C(=O)O)C(=O)O)CC1` (some centres unmarked) [PSMA-G], the “Exposure in Bladder” value came out at 935.9 h*ID %/g, the “Exposure in Bone” value is 54.86 h*ID %/g, the “Exposure in Heart” value is 123.9 h*ID %/g and the “Exposure in Kidney” value came out at 1589 h*ID %/g. In addition, the “Exposure in Liver” value came to 193.2 h*ID %/g, the “Exposure in Lung” value is reported as 86.51 h*ID %/g, the “Exposure in Muscle” value was determined as 71.89 h*ID %/g and the “Exposure in Spleen” value was 83.39 h*ID %/g. For the same compound, the “Exposure in Tumor” value amounted to 226.4 h*ID %/g.
For the compound `COc1ccc(CCCC(=O)NC(CCCNC(=N)N)C(=O)N[C@@H](CCCCNC(=O)CN2CCN(CC(=O)O)CCN(CC(=O)O)CCN(CC(=O)O)CC2)C(=O)NCC2CCC(C(=O)N[C@@H](Cc3ccc4ccccc4c3)C(=O)NCCCC[C@H](NC(=O)N[C@@H](CCC(=O)O)C(=O)O)C(=O)O)CC2)cc1` (some centres unmarked) [PSMA-A], the “Exposure in Bladder” value was 310.2 h*ID %/g, the “Exposure in Bone” value is listed as 40.07 h*ID %/g, the “Exposure in Heart” value turned out to be 50.46 h*ID %/g and the “Exposure in Kidney” value is on record as 206 h*ID %/g. The “Exposure in Liver” value is 101.6 h*ID %/g, the “Exposure in Lung” value turned out to be 35.49 h*ID %/g, the “Exposure in Muscle” value came to 17.65 h*ID %/g and the “Exposure in Spleen” value was 42.25 h*ID %/g. The “Exposure in Tumor” value is listed as 235 h*ID %/g.
As for `O=C(O)CCCCCCCCCCC(=O)N[C@@H](CCCCNC(=O)CN1CCN(CC(=O)O)CCN(CC(=O)O)CCN(CC(=O)O)CC1)C(=O)NCC1CCC(C(=O)N[C@@H](Cc2ccc3ccccc3c2)C(=O)NCCCC[C@H](NC(=O)N[C@@H](CCC(=O)O)C(=O)O)C(=O)O)CC1` (some centres unmarked) [PSMA-H], the “Exposure in Bladder” value is 1135 h*ID %/g, the “Exposure in Bone” value is recorded as 22.69 h*ID %/g, the “Exposure in Heart” value came out at 63.71 h*ID %/g and the “Exposure in Kidney” value is 575 h*ID %/g. For the same compound, the “Exposure in Liver” value worked out at 72.88 h*ID %/g, the “Exposure in Lung” value was 56.76 h*ID %/g, the “Exposure in Muscle” value is 35.74 h*ID %/g and the “Exposure in Spleen” value came out at 62.06 h*ID %/g. Moreover, the “Exposure in Tumor” value was 441.2 h*ID %/g.
`COc1ccc(CCCC(=O)NC(CCCCN)C(=O)N[C@@H](CCCCNC(=O)CN2CCN(CC(=O)O)CCN(CC(=O)O)CCN(CC(=O)O)CC2)C(=O)NCC2CCC(C(=O)N[C@@H](Cc3ccc4ccccc4c3)C(=O)NCCCC[C@H](NC(=O)N[C@@H](CCC(=O)O)C(=O)O)C(=O)O)CC2)cc1` (some centres unmarked) [PSMA-C]: the “Exposure in Bladder” value is reported as 100.8 h*ID %/g, the “Exposure in Bone” value came to 32.01 h*ID %/g, the “Exposure in Heart” value is 38.58 h*ID %/g and the “Exposure in Kidney” value is 178.7 h*ID %/g. In addition, the “Exposure in Liver” value stood at 49.61 h*ID %/g, the “Exposure in Lung” value is 31.55 h*ID %/g, the “Exposure in Muscle” value was 17.82 h*ID %/g and the “Exposure in Spleen” value is reported as 29.2 h*ID %/g. Moreover, the “Exposure in Tumor” value came to 131.9 h*ID %/g.

The same data set, now with this note: predicted values (PSMA-D).
For the compound `COc1ccc(CCCC(=O)NC(CO)C(=O)N[C@@H](CCCCNC(=O)CN2CCN(CC(=O)O)CCN(CC(=O)O)CCN(CC(=O)O)CC2)C(=O)NCC2CCC(C(=O)N[C@@H](Cc3ccc4ccccc4c3)C(=O)NCCCC[C@H](NC(=O)N[C@@H](CCC(=O)O)C(=O)O)C(=O)O)CC2)cc1` (some centres unmarked) [PSMA-D], the “Exposure in Bladder” value is given as 200-800 h*ID %/g, the “Exposure in Bone” value is 10-80 h*ID %/g, the “Exposure in Heart” value is recorded as 20-100 h*ID %/g and the “Exposure in Kidney” value is 50-500 h*ID %/g. The “Exposure in Liver” value is 50-200 h*ID %/g, the “Exposure in Lung” value was 20-200 h*ID %/g, the “Exposure in Muscle” value is on record as 20-100 h*ID %/g and the “Exposure in Spleen” value is on record as 20-100 h*ID %/g. Further, the “Exposure in Tumor” value is given as 200-1000 h*ID %/g.
